Test results taken from US20070203066A1, “Compositions and methods for inhibiting cellular proliferation” (priority 2005, published 2007).
Like-named read-outs stand apart in the source and are kept apart here. Non-standard residues stand in square brackets, D forms with d. Primed or numbered codes have the meaning given here. No end group written: not given here. Ida = iminodiacetic acid linker, its two carboxyls bind the Lys side-chain amines of two peptides, giving a homodimer; Ida(3) = iminodiacetic acid linker, Lys side-chain amines bound to its two carboxyl groups; Ida(4) = iminodiacetic acid linker (dimerization linker bound to lysine side chain); Ida″ = iminodiacetic acid linker bound to the Lys side-chain amine, forming a dimer; GP3 = not defined here; Ahx = NCCCCCC(=O)O

Test system: HUVECs
Assay type: cell-based
Procedure, shortened: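 Proliferation read-out: BrdU incorporation after 48-hour culture (37 ° C, 5% CO2) with graded peptide doses. Cells were in EBM with 2% FCS at 5,000 per well, driven by VEGF (5 ng/ml) or bFGF (10 ng/ml), added after ≥12-hour attachment.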

[1] = HUVEC proliferation, bFGF at 10 ng/ml or VEGF at 5 ng/ml, 48 hours, BrdU incorporation, read-out: IC50 on HUVECs

Compound | IC50 [1] | IC50 (48 h)
440 (Ac-RRRRSQAVAIYFK(Ida(4)); not fully specified (C-terminus); also: homodimer via Ida linker at K13) [compound 440] | < 10 µM | –
470 (Ac-PRRRDQAVAIYFK(Ida(3)); not fully specified (C-terminus); also: homodimer via Ida linker on Lys13 side chain) [compound 470] | > 30 µM | –
399 (Ac-ARRRRQAVRIYFK; not fully specified (residue 13, C-terminus); also: homotrimer via ATA linker at Lys13 side chain) [compound 399] | < 10 µM | –
422 (Ac-ARRRRQTVAIYFK; not fully specified (residue 13, C-terminus); also: homodimer of residues 1-13 via Ida linker on K13 side chain) [compound 422] | < 10 µM | –
401 (Ac-ERRRRQAVAIYFK(Ida(3))-NH2; also: homodimer via Ida linker on Lys13 side chain, Ida amine Boc) [compound 401] | < 10 µM | –
424 (Ac-ARRRRQWVAIYFK; not fully specified (residue 13, C-terminus); also: homodimer of residues 1-13 via Ida linker on K13 side chain) [compound 424] | < 10 µM | –
404 (Ac-IRRRRQAVAIYFK(Ida(3))-NH2; also: homodimer via Ida linker on Lys13 side chain, Boc on Ida amine) [compound 404] | < 10 µM | –
CC[C@H](C)[C@H](NC(=O)[C@H](C)NC(=O)[C@@H](NC(=O)[C@H](CCCNC(=N)N)NC(=O)[C@H](CCC(N)=O)NC(=O)[C@H](CCCNC(=N)N)NC(=O)[C@H](CCCNC(=N)N)NC(=O)[C@H](CCCNC(=N)N)NC(=O)[C@H](CCCNC(=N)N)NC(=O)[C@H](C)NC(C)=O)C(C)C)C(=O)N[C@@H](Cc1ccc(O)cc1)C(=O)N[C@@H](CCC(=O)O)C(=O)N[C@@H](CCCCNC(=O)CN(CC(=O)NCCCC[C@H](NC(=O)[C@H](CCC(=O)O)NC(=O)[C@H](Cc1ccc(O)cc1)NC(=O)[C@@H](NC(=O)[C@H](C)NC(=O)[C@@H](NC(=O)[C@H](CCCNC(=N)N)NC(=O)[C@H](CCC(N)=O)NC(=O)[C@H](CCCNC(=N)N)NC(=O)[C@H](CCCNC(=N)N)NC(=O)[C@H](CCCNC(=N)N)NC(=O)[C@H](CCCNC(=N)N)NC(=O)[C@H](C)NC(C)=O)C(C)C)[C@@H](C)CC)C(N)=O)C(=O)CCNC(=O)OC(C)(C)C)C(N)=O [Peptide 346] | – | > 30 µM
CC[C@H](C)[C@H](NC(=O)[C@H](CCCNC(=N)N)NC(=O)[C@@H](NC(=O)[C@H](CCCNC(=N)N)NC(=O)[C@H](CCC(N)=O)NC(=O)[C@H](CCCNC(=N)N)NC(=O)[C@H](CCCNC(=N)N)NC(=O)[C@H](CCCNC(=N)N)NC(=O)[C@H](CCCNC(=N)N)NC(=O)[C@H](CCCNC(=N)N)NC(C)=O)C(C)C)C(=O)N[C@H](C(=O)N[C@@H](Cc1ccccc1)C(=O)N[C@@H](CCCCNC(=O)CN(CC(=O)NCCCC[C@H](NC(=O)[C@H](Cc1ccccc1)NC(=O)[C@@H](NC(=O)[C@@H](NC(=O)[C@H](CCCNC(=N)N)NC(=O)[C@@H](NC(=O)[C@H](CCCNC(=N)N)NC(=O)[C@H](CCC(N)=O)NC(=O)[C@H](CCCNC(=N)N)NC(=O)[C@H](CCCNC(=N)N)NC(=O)[C@H](CCCNC(=N)N)NC(=O)[C@H](CCCNC(=N)N)NC(=O)[C@H](CCCNC(=N)N)NC(C)=O)C(C)C)[C@@H](C)CC)[C@@H](C)CC)C(N)=O)C(=O)CCNC(=O)OC(C)(C)C)C(N)=O)[C@@H](C)CC [Peptide 167] | – | < 10 µM
428 (Ac-ARRRRQAVAIK(GP3)F; reading uncertain; also: homodimer via GP3 linker at K11) [compound 428] | < 10 µM | –
488 (Ac-PRRRNQAVAIKF; not fully specified (residue 11); also: homodimer via Ida linker on Lys11 side chain) [compound 488] | 10 to 30 µM | –
314 (Ac-RARRRQAVAIPFK(Ida)-NH2; also: homodimer via Ida linker on Lys13 side chain) [compound 314] | > 30 µM | –
KTKRKRKKQRVKIIFVQAM [compound 106] | < 10 µM | –
308 (Ac-RRRRRQAVK(Ida)IIFV; also: homodimer via Ida linker on Lys9 side chain) [compound 308] | < 10 µM | –
185 (Ac-RHRRRQRVRIIF; also: homodimer via C-terminal Lys linker) [compound 185] | < 10 µM | –
195 (Ac-ARRRRQAVRIIF; also: dimer: C-terminal Phe bound to an amino group of a Lys linker, 2 chains per Lys) [compound 195] | < 10 µM | –
TKRKRKKQRVKIAYEEIF [compound 65] | > 30 µM | –
341 (Ac-RRHRHQRVHIYFK(Ida(3))-NH2; also: homodimer via Lys13 side chain, Ida linker (Ida amino group Boc)) [compound 341] | < 10 µM | –
465 (Ac-ARRQRQAVAIYFK(Ida(3)); not fully specified (C-terminus); also: homodimer via Ida linker on Lys13 side chain) [compound 465] | < 10 µM | –
407 (Ac-NRRRRQAVAIYFK; not fully specified (residue 13, C-terminus); also: homodimer via Ida linker on Lys side chains, linker at 13 via Ida, other end not in the chain) [compound 407] | < 10 µM | –
328 (XRHRRQHVRIYFK; not fully specified; Xaa = Acylated Histidine; The side chain of Lysine at position 13 is covalently bound to an Ida linker forming a homodimer of residues 1 through 13.) [compound 328] | < 10 µM | –
494 (Ac-PRNRRQAVAIYFK(Ida″); not fully specified (C-terminus); also: homodimer via Ida linker on Lys13 side chain) [compound 494] | 10 to 30 µM | –
KTKAARKKQRVKIAYEEIFVQNM [compound 55] | > 30 µM | –

Compound | IC50 [1] | IC50 (48 h)
380 (Ac-ARRRRQEVAIYFK-NH2; not fully specified (residue 13); also: homodimer via Ida linker on Lys13 side chain, Ida amine Boc) [compound 380] | < 10 µM | –
235 (Ac-RHHRRQRVRIIF; also: dimer via C-terminal Phe to Lys linker) [compound 235] | < 10 µM | –
240 (Ac-RRHHRQRVRIIF; also: dimer via C-terminal Phe to Lys linker) [compound 240] | < 10 µM | –
429 (Ac-ARRRRQAVAIK(Ida(4))FI; also: homodimer via Ida linker at K11) [compound 429] | < 10 µM | –
208 (Ac-RRRARQRVAIIF; also: dimer: Phe C-termini joined via Lys linker) [compound 208] | < 10 µM | –
KRKRKKQQRVKIAYEEIFV [compound 75] | 10 to 30 µM | –
379 (Ac-ARRRRQRVAISFK-NH2; not fully specified (residue 13); also: homodimer via Ida linker on Lys13 side chain, Ida amine Boc) [compound 379] | < 10 µM | –
213 (Ac-ARARRQRVAIIF; also: dimer: Phe C-termini joined via Lys linker) [compound 213] | < 10 µM | –
392 (Ac-ARRRRQAVPIYFK; not fully specified (residue 13, C-terminus); also: homodimer of residues 1-13 via Ida linker at Lys13 side chain) [compound 392] | > 30 µM | –
135 (KRKRKKQRVKI[Ahx][Ahx]IF; also: dimer: C-terminus of Phe15 of each chain bound to one amino group of a Lysine linker) [compound 135] | < 10 µM | –
KRKRKKQRVKIAYEEIFVKNM [compound 3] | 10 to 30 µM | –
390 (Ac-ARRRRQAVMIYFK; not fully specified (residue 13, C-terminus); also: homodimer of residues 1-13 via Ida linker at Lys13 side chain) [compound 390] | < 10 µM | –
211 (Ac-RRRRRQAVAIIF; also: dimer: Phe C-termini joined via Lys linker) [compound 211] | < 10 µM | –
KTKRKRKKQRVKIIF [compound 79] | > 30 µM | –
378 (Ac-ARRRRQRVAIQFK-NH2; not fully specified (residue 13); also: homodimer via Ida linker on Lys13 side chain, Ida amine Boc) [compound 378] | < 10 µM | –
TKRKRKKQQRVKIAYEEIFV [compound 74] | > 30 µM | –
KTKRKRKKQRVEEIFVQNM [compound 31] | > 30 µM | –
497 (Ac-PRLRRQAVAIYFK(Ida″); not fully specified (C-terminus); also: homodimer via Ida linker on Lys13 side chain) [compound 497] | 10 to 30 µM | –
463 (Ac-ARRARQAVAIYFK(Ida(3)); not fully specified (C-terminus); also: homodimer via Ida linker on Lys side chains, linker at 13 via Ida, other end not in the chain) [compound 463] | < 10 µM | –
316 (Ac-ARRRRQAVHIYFK(Ida)-NH2; also: homodimer via Ida linker on Lys13 side chain) [compound 316] | < 10 µM | –
KTKRKRKKQRVKIIAVQNM [compound 109] | > 30 µM | –
337 (Ac-RHRHRQHVRIYFK(Ida(3))-NH2; also: homodimer via Lys13 side chain, Ida linker (Ida amino group Boc)) [compound 337] | < 10 µM | –
194 (Ac-ARRRAQRVRIIF; also: dimer: C-terminal Phe bound to an amino group of a Lys linker, 2 chains per Lys) [compound 194] | < 10 µM | –
